Assay results: patent US10201586B2 (dated 2019)
“Also recorded” adds a separate entry of the source. Values belong to the compound of their own block, whether it stands above or below them. Where a SMILES comes first, the peptide text is derived from it. Bridges are numbered along the chain shown (N, C = ends). [ ]: non-standard residue; d: D form. ξ: configuration not given here. β3hL = CC(C)C[C@H](N)CC(=O)O; β3hK = NCCCC[C@H](N)CC(=O)O; Nle = CCCC[C@H](N)C(=O)O; ξβ3hV = CC(C)C(N)CC(=O)O

Assays:
TFPI [1] = molecular target: T1, TFPI (Homo sapiens, UniProt P10646); assay: IC50 [nm]
Target sequence in this assay (P10646 29-304 limits assumed): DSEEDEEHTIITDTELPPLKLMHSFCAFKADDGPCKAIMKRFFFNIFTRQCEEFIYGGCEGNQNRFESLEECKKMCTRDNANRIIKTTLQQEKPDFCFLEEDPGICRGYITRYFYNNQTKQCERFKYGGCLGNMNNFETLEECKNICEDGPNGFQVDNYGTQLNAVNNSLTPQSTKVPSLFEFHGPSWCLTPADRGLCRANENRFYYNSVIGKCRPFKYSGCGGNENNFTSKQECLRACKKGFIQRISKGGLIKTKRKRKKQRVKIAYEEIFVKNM

TFPI [2] = molecular target: T1, TFPI; assay: IC50 Mean (nM]
Target sequence in this assay (P10646 29-304 limits assumed): as above

[3] = plasma stability in mouse plasma; assay type: in vitro ADME; conditions: for remaining at 24 h: read-out: percentage of initial amount of peptide remaining in plasma
[4] = plasma stability in human plasma; assay type: in vitro ADME; conditions: human plasma
[5] = pharmacokinetic analysis in mice; assay type: in vivo, mouse; conditions: C57B16 mice, 10 mg/kg i.v., FIG. 31
[6] = test system: human whole blood clot formation; assay: rotation thromboelastography (ROTEM); conditions: Hem A (FVIII-inhibited) human whole blood
TFPI [7] = molecular target: T1, TFPI; assay: % Inhibition @ 2.5µM
TFPI [8] = molecular target: T1, TFPI; assay: Extrinsic Tenase Inhibition assay | % Inhibition @ 2.5µM
FIX knock-out mice = assay: tail-tip bleed model; assay type: in vivo, mouse
Protocol: The amount of blood was determined gravimetrically.
JBT2329 also was tested in a FIX knock-out tail-tip bleed mouse model, which is a clinically-relevant model for hemophilia B human patients. The methodology was substantially similar to that described above with respect to the FVIII knock-out model. Instead of ADVATE, a recombinant FIX (rFIX) served as a reference. Median total blood loss in buffer-treated animals was 935 mg. Median total blood loss in animals treated with a murine anti-TFPI antibody (maTFPI) was 774 mg. Median total blood loss was reduced further when the animals received combined treatment of maTFPI and rFIX.

Compound: CCCC[C@H](NC(=O)CNC(=O)[C@H](CO)NC(=O)[C@H](Cc1ccccc1)NC(=O)[C@H](Cc1c[nH]c2ccccc12)NC(=O)[C@H](CCCCN)NC(C)=O)C(=O)N[C@@H](CCCNC(=N)N)C(=O)N[C@@H](CC(=O)O)C(=O)N[C@@H](CCCC)C(=O)N[C@@H](CCCCN)C(=O)NCC(=O)N[C@H](C(=O)N[C@@H](CCCC)C(=O)N[C@@H](CO)C(=O)N[C@@H](CO)C(=O)N[C@H](C(=O)N[C@@H](Cc1c[nH]c2ccccc12)C(=O)N[C@H](C(=O)N[C@@H](CCCCN)C(=O)N[C@@H](Cc1ccccc1)C(N)=O)C(C)C)C(C)C)[C@@H](C)O [JBT0414 | 1205, Ac-KWFSG-Nle-RD-Nle-KGT-Nle-SSVWVKF-NH2] (Ac-KWFSG[Nle]RD[Nle]KGT[Nle]SSVWVKF-NH2)
- IC50 (TFPI [1]): 5.69 µM

Compound: CSCC[C@H](NC(=O)CNC(=O)[C@H](CO)NC(=O)[C@H](Cc1ccccc1)NC(=O)[C@H](Cc1c[nH]c2ccccc12)NC(=O)[C@H](CCCCN)NC(=O)[C@H](Cc1ccc(O)cc1)NC(=O)[C@H](CCCNC(=N)N)NC(=O)[C@H](CO)NC(C)=O)C(=O)N[C@@H](CCCNC(=N)N)C(=O)N[C@@H](CC(=O)O)C(=O)N[C@@H](CCSC)C(=O)N[C@@H](CCCCN)C(=O)NCC(=O)N[C@H](C(=O)N[C@@H](CCSC)C(=O)N[C@@H](CO)C(=O)N[C@@H](CO)C(=O)N[C@H](C(=O)N[C@@H](Cc1c[nH]c2ccccc12)C(=O)N[C@H](C(=O)N[C@@H](CCCCN)C(=O)N[C@@H](Cc1ccccc1)C(N)=O)C(C)C)C(C)C)[C@@H](C)O [JBT0417 | 1229] (Ac-SRYKWFSGMRDMKGTMSSVWVKF-NH2)
- IC50 (TFPI [1]): > 50 µM

Compound: CCCC[C@H](NC(=O)CNC(=O)[C@H](CO)NC(=O)[C@H](Cc1ccccc1)NC(=O)[C@H](Cc1c[nH]c2ccccc12)NC(=O)[C@H](CCCCN)NC(=O)[C@H](Cc1ccc(O)cc1)NC(=O)[C@H](CCCNC(=N)N)NC(=O)[C@H](CO)NC(C)=O)C(=O)N[C@@H](CCCNC(=N)N)C(=O)N[C@@H](CC(=O)O)C(=O)N[C@@H](CCCC)C(=O)N[C@@H](CCCCN)C(=O)NCC(=O)N[C@H](C(=O)N[C@@H](CCCC)C(=O)N[C@@H](CO)C(=O)N[C@@H](CO)C(=O)N[C@H](C(=O)N[C@@H](Cc1c[nH]c2ccccc12)C(=O)N[C@H](C(=O)N[C@@H](CCCCN)C(=O)N[C@@H](Cc1ccccc1)C(N)=O)C(C)C)C(C)C)[C@@H](C)O [JBT0418 | 1210, Ac-SRYKWF SG-Nle-RD-Nle-KGT-Nle-SS VWVKF-NH2] (Ac-SRYKWFSG[Nle]RD[Nle]KGT[Nle]SSVWVKF-NH2)
- IC50 (TFPI [1]): 43.9 µM

Compound: CSCC[C@@H]1NC(=O)CNC(=O)[C@@H](NC(=O)[C@H](Cc2ccccc2)NC(=O)[C@H](Cc2c[nH]c3ccccc23)NC(=O)[C@H](CCCCN)NC(=O)[C@H](Cc2ccc(O)cc2)NC(=O)[C@H](CCCNC(=N)N)NC(=O)[C@H](CO)NC(C)=O)CSSC[C@@H](C(=O)N[C@H](C(=O)N[C@@H](Cc2c[nH]c3ccccc23)C(=O)N[C@H](C(=O)N[C@@H](CCCCN)C(=O)N[C@@H](Cc2ccccc2)C(N)=O)C(C)C)C(C)C)NC(=O)[C@H](CO)NC(=O)[C@H](CCSC)NC(=O)[C@H]([C@@H](C)O)NC(=O)CNC(=O)[C@H](CCCCN)NC(=O)[C@H](CCSC)NC(=O)[C@H](CC(=O)O)NC(=O)[C@H](C)NC1=O [JBT0446 | 1079] (Ac-SRYKWFCGMADMKGTMSCVWVKF-NH2; disulfide 7-18)
- IC50 (TFPI [1]): 0.152 µM

Compound: CC(=O)N[C@@H](Cc1ccccc1)C(=O)N[C@@H](CCC(N)=O)C(=O)N[C@@H](CO)C(=O)N[C@@H](CCCCN)C(=O)NCC(=O)N[C@@H](CC(N)=O)C(=O)N[C@H](C(=O)N[C@@H](Cc1ccccc1)C(=O)NC(CC(=O)N[C@@H](Cc1ccccc1)C(=O)NCC(=O)N[C@@H](Cc1ccc(O)cc1)C(=O)N[C@@H](Cc1ccccc1)C(=O)N[C@@H](CCC(=O)O)C(=O)N[C@@H](CCCNC(=N)N)C(=O)N[C@@H](CC(C)C)C(=O)N[C@@H](CCCNC(=N)N)C(=O)N[C@@H](C)C(=O)N[C@@H](CCCCN)C(=O)N[C@@H](CC(C)C)C(N)=O)C(C)C)C(C)C (stereo partly drawn) [JBT0523 | 757] (Ac-FQSKGNVF[ξβ3hV]FGYFERLRAKL-NH2)
- IC50 (TFPI [2]): > 5 µM

Compound: CC(=O)N[C@@H](Cc1ccccc1)C(=O)N[C@@H](CCC(N)=O)C(=O)N[C@@H](CO)C(=O)N[C@@H](CCCCN)C(=O)NCC(=O)N[C@@H](CC(N)=O)C(=O)N[C@H](C(=O)N[C@@H](Cc1ccccc1)C(=O)N[C@H](C(=O)N[C@@H](Cc1ccccc1)C(=O)NCC(=O)N[C@@H](Cc1ccc(O)cc1)C(=O)N[C@@H](Cc1ccccc1)C(=O)N[C@@H](CCC(=O)O)C(=O)N[C@@H](CCCNC(=N)N)C(=O)N[C@@H](CC(C)C)C(=O)N[C@@H](CCCNC(=N)N)C(=O)N[C@@H](C)C(=O)N[C@@H](CCCCN)CC(=O)N[C@@H](CC(C)C)C(N)=O)C(C)C)C(C)C [JBT0533 | 424] (Ac-FQSKGNVFVFGYFERLRA[β3hK]L-NH2)
- IC50 (TFPI [2]): 0.756 µM

Compound: CC(=O)N[C@@H](Cc1ccccc1)C(=O)N[C@@H](CCC(N)=O)C(=O)N[C@@H](CO)C(=O)N[C@@H](CCCCN)C(=O)NCC(=O)N[C@@H](CC(N)=O)C(=O)N[C@H](C(=O)N[C@@H](Cc1ccccc1)C(=O)N[C@H](C(=O)N[C@@H](Cc1ccccc1)C(=O)NCC(=O)N[C@@H](Cc1ccc(O)cc1)C(=O)N[C@@H](Cc1ccccc1)C(=O)N[C@@H](CCC(=O)O)C(=O)N[C@@H](CCCNC(=N)N)C(=O)N[C@@H](CC(C)C)C(=O)N[C@@H](CCCNC(=N)N)C(=O)N[C@@H](C)C(=O)N[C@@H](CCCCN)C(=O)N[C@H](CC(N)=O)CC(C)C)C(C)C)C(C)C [JBT0534 | 204] (Ac-FQSKGNVFVFGYFERLRAK[β3hL]-NH2)
- IC50 (TFPI [2]): 0.084 µM

Compound: CSCC[C@@H]1NC(=O)[C@H](C)NC(=O)[C@@H](NC(=O)[C@H](Cc2c[nH]cn2)NC(=O)[C@H](Cc2c[nH]c3ccccc23)NC(=O)[C@H](CCCCN)NC(=O)[C@H](Cc2ccc(O)cc2)NC(=O)[C@H](Cc2ccc(O)cc2)NC(=O)[C@H](CO)NC(C)=O)CSSC[C@@H](C(=O)N[C@H](C(=O)N[C@@H](Cc2c[nH]c3ccccc23)C(=O)N[C@H](C(=O)N[C@@H](CCCCN)C(=O)N[C@@H](Cc2ccccc2)C(N)=O)C(C)C)C(C)C)NC(=O)[C@H]([C@@H](C)O)NC(=O)[C@H](CCSC)NC(=O)[C@H]([C@@H](C)O)NC(=O)CNC(=O)[C@H](CCCCN)NC(=O)[C@H](CCSC)NC(=O)[C@H](CC(=O)O)NC(=O)[C@H](CCCNC(=N)N)NC1=O [JBT1837]
- coagulation parameters [6]: corrected blood coagulation parameters in FVIII-inhibited blood

Compound: rFIX: a recombinant FIX (rFIX) served as a reference
- Median blood loss (FIX knock-out mice; 10 IU/kg rFIX alone): 888 mg
- Median blood loss (FIX knock-out mice; 25 IU/kg rFIX alone): 774 mg

Second part, led by results:

- half-life [3]: 50 min
- half-life [4]: > 120 min
- plasma concentration after intravenous administration [5]: rapidly cleared from the plasma
Compound: CC(=O)N[C@@H](Cc1ccccc1)C(=O)N[C@@H](CCC(N)=O)C(=O)N[C@@H](CO)C(=O)N[C@@H](CCCCN)C(=O)NCC(=O)N[C@@H](CC(N)=O)C(=O)N[C@H](C(=O)N[C@@H](Cc1ccccc1)C(=O)N[C@H](C(=O)N[C@@H](CC(=O)O)C(=O)NCC(=O)N[C@@H](Cc1ccc(O)cc1)C(=O)N[C@@H](Cc1ccccc1)C(=O)N[C@@H](CCC(=O)O)C(=O)N[C@@H](CCCNC(=N)N)C(=O)N[C@@H](CC(C)C)C(=O)NC(C)(C)C(=O)N[C@@H](C)C(=O)N[C@@H](CCCCN)C(=O)N[C@@H](CC(C)C)C(N)=O)C(C)C)C(C)C [JBT0740]

- remaining at 24 h [3]: < 10%
Compound: CC(=O)N[C@@H](Cc1ccccc1)C(=O)N[C@@H](CCC(N)=O)C(=O)N[C@@H](CO)C(=O)N[C@@H](CCCCN)C(=O)N1CCC[C@@H]1C(=O)N[C@@H](CC(N)=O)C(=O)N[C@H](C(=O)N[C@@H](Cc1c[nH]cn1)C(=O)N[C@H](C(=O)N[C@@H](CC(=O)O)C(=O)NCC(=O)N[C@@H](Cc1ccc(O)cc1)C(=O)N[C@@H](Cc1ccccc1)C(=O)N[C@@H](CCC(=O)O)C(=O)N[C@@H](CCCNC(=N)N)C(=O)N[C@@H](CC(C)C)C(=O)NC(C)(C)C(=O)N[C@@H](C)C(=O)N[C@@H](CCCCN)C(=O)N[C@@H](CC(C)C)C(N)=O)C(C)C)C(C)C [JBT1857]
- coagulation parameters [6]: restored coagulation parameters in Hem A blood; also recorded: positively impacted blood coagulation parameters, but performed less efficiently than JBT1837

- remaining at 24 h [3]: < 10%
Compound: CCN1C(=O)CC(SC[C@H](NC(=O)[C@H](CC(C)C)NC(=O)[C@H](CCCCN)NC(=O)[C@H](C)NC(=O)C(C)(C)NC(=O)[C@H](CC(C)C)NC(=O)[C@H](CCCNC(=N)N)NC(=O)[C@H](CCC(=O)O)NC(=O)[C@H](Cc2ccccc2)NC(=O)[C@H](Cc2ccc(O)cc2)NC(=O)CNC(=O)[C@H](CC(=O)O)NC(=O)[C@@H](NC(=O)[C@H](Cc2c[nH]cn2)NC(=O)[C@@H](NC(=O)[C@H](CC(N)=O)NC(=O)[C@H]2CCCN2C(=O)[C@H](CCCCN)NC(=O)[C@H](CO)NC(=O)[C@H](CCC(N)=O)NC(=O)[C@H](Cc2ccccc2)NC(C)=O)C(C)C)C(C)C)C(N)=O)C1=O (some centres unmarked) [JBT2317]
- coagulation parameters [6]: restored coagulation parameters in Hem A blood

- % Inhibition @ […] (TFPI [7]): 4%
- Extrinsic Tenase Inhibition assay | % Inhibition @ […] (TFPI [8]): 0%
Compound: Ac-SGAASFPLAVQLHVSKRSKEMALARLYYKTS-NH2 (SEQ ID NO: 2131) [JBT0662]

- % Inhibition @ […] (TFPI [7]): 6%
- Extrinsic Tenase Inhibition assay | % Inhibition @ […] (TFPI [8]): 2%
Compound: Ac-SGYASFPLAVALHVSKRSKEMALARLYYKTS-NH2 (SEQ ID NO: 2007) [JBT0670]

- % Inhibition @ […] (TFPI [7]): 4%
- Extrinsic Tenase Inhibition assay | % Inhibition @ […] (TFPI [8]): 7%
Compound: Ac-SGYASFPLAVQAHVSKRSKEMALARLYYKTS-NH2 (SEQ ID NO: 2019) [JBT0671]
